Measured values reported in patent US20230026232A1, “AHR INHIBITORS AND USES THEREOF” (Ikena Oncology, Inc., priority 2019, published 2023).
pIC50: −log10 of the molar value.

Columns and labels:
AHR = target: T1, AHR (Homo sapiens, UniProt P35869); assay: HepG2 DRE-Luc reporter assay, VAF347-stimulated luciferase expression; type: cell-based; set-up: endogenous in cells; host or cells: HepG2 DRE-Luc reporter cell line; conditions: 80 nM VAF347, n=2
T1 sequence (P35869 11-848): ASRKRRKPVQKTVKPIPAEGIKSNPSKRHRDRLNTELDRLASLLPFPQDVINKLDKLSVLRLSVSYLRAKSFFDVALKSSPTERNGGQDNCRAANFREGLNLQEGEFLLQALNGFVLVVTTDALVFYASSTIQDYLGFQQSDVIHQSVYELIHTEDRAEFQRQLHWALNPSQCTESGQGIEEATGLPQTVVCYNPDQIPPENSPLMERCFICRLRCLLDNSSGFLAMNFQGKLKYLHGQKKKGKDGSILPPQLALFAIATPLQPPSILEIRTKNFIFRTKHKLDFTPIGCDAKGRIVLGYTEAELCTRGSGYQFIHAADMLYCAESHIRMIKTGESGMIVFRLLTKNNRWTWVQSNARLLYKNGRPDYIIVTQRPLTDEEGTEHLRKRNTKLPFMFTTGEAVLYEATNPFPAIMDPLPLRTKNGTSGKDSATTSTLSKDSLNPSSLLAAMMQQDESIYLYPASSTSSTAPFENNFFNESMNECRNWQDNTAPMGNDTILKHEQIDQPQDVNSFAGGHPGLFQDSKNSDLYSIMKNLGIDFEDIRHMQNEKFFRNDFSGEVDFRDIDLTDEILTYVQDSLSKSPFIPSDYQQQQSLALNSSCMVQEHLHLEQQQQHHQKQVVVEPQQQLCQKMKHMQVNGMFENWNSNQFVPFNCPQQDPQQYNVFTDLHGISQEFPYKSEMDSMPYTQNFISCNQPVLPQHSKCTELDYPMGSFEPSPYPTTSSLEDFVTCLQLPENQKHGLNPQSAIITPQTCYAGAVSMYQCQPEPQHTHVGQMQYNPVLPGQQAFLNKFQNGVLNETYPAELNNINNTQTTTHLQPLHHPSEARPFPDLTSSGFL
Experimental: In vitro experiments were conducted to examine the inhibitory activity of Compound A for AHR-mediated transcriptional activation in the HepG2 DRE-Luc reporter cell line. This human hepatoma cell line stably expresses a luciferase reporter gene under control of AHR-responsive DRE enhancer elements (Han, 2004). HepG2 DRE-Luc reporter cells were treated with 80 nM VAF347 to activate AHR.
The inhibitory activity of the human Compound A metabolites, Compound B and Compound C was also determined in the HepG2 DRE-Luc cell line. Reporter cells were stimulated with 80 nM VAF347 and each metabolite at multiple concentrations.

[1] = Phase 1 dose-escalation study: interim cohort pharmacokinetics; type: in vivo, human; conditions: for dose proportionality of PK: Cycle 2 Day 1 (C2D1)
Experimental: Serial blood samples are obtained to characterize the plasma PK of Compound A and its major active metabolites. The initial sampling strategy is based on the predicted human PK of this compound. If in the course of evaluating the PK, it is determined that an alternative sampling scheme would be more informative, then that alternative sampling scheme may be implemented if the total amount of blood and blood draws obtained for PK is not increased. Moreover, the total number of samples may be decreased at any time if the initial sampling scheme is considered unnecessarily intensive.
Interim cohort pharmacokinetics were assessed on parent (Compound A) and two active metabolites (Compound B and Compound C). […] Compound B metabolite ratio is increased on C2D1 in cohorts above 200 mg dosages. […] Without wishing to be bound or limited by theory, elimination rate limited kinetics likely contributing to the accumulation of Compound B through on-target inhibition of CYP1A1.

pIC50 (AHR)	ratio to Compound A on C2D1 ([1]; 400 mg and 800 mg dose)	dose proportionality of PK [1]	accumulation with repeat dosing ([1]; repeat dosing above 200 mg)	AUC compared with Compound A ([1]; repeated dosing, 2/3 subjects at 400 and 800 mg)	ratio to Compound A (AUC) ([1]; 400 mg and 800 mg dose)	Structure (SMILES)
7.64	1.3-1.4 × parent	greater than dose proportional	Accumulation of Compound B observed	greater than Compound A		CC(C)(O)c1cnn2c(N[C@@H]3CCc4[nH]c5ccccc5c4C3)nc(-c3cncc(F)c3)nc12 [Compound B]
6.67		greater than dose proportional			15-20 % of parent	C=C(C)c1cnn2c(N[C@@H]3CCc4[nH]c5ccccc5c4C3)nc(-c3cncc(F)c3)nc12 [Compound C]
